Source: ChEMBL document CHEMBL1201862, “PubChem BioAssay data set” (2004)
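Grown in 96-well plates, cells were treated for 48 hours with each compound at five concentrations. Insufficient inhibition: endpoint recorded as highest concentration tested. GI50 marks 50% less growth.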 The source made the active and inactive calls. Cut-off read from the data, not from the text of the source: active = GI50 up to about 1.1 µM and inactive = higher.

Columns and labels:
Assay in all cases: NCI anticancer screen, dose series, 48 h
A498 = tested on: A498
A549 = tested on: A549
CAKI-1 = tested on: CAKI-1
HCT-116 = tested on: HCT-116
HCT-15 = tested on: HCT-15
HT-29 = tested on: HT-29
IGROV-1 = tested on: IGROV-1
KM12 = tested on: KM12
LOX IMVI = tested on: LOX IMVI
NCI-H23 = tested on: NCI-H23
OVCAR-4 = tested on: OVCAR-4
OVCAR-8 = tested on: OVCAR-8
SF-295 = tested on: SF-295
SNB-78 = tested on: SNB-78
U-251 = tested on: U-251
UACC-62 = tested on: UACC-62
K562 = tested on: K562
SK-MEL-28 = tested on: SK-MEL-28
SNB-75 = tested on: SNB-75

| SMILES | GI50 (A498) | GI50 (A549) | GI50 (CAKI-1) | GI50 (HCT-116) | GI50 (HCT-15) [µM] | GI50 (HT-29) | GI50 (IGROV-1) | GI50 (KM12) | GI50 (LOX IMVI) | GI50 (NCI-H23) | GI50 (OVCAR-4) | GI50 (OVCAR-8) | GI50 (SF-295) | GI50 (SNB-78) | GI50 (U-251) | GI50 (UACC-62) | GI50 (K562) | GI50 (SK-MEL-28) | GI50 (SNB-75) |
| --- | --- | --- | --- | --- | --- | --- | --- | --- | --- | --- | --- | --- | --- | --- | --- | --- | --- | --- | --- |
| O=C1/C=C(/c2ccc(O)cc2)[C@@H](O)Cc2ccc(O)cc2O1 | 2.25 µM (inactive) | 56.1 µM (inactive) | 29.1 µM (inactive) | > 100 µM (inactive) | > 100 | > 100 µM (inactive) | > 100 µM (inactive) | 88.1 µM (inactive) | 92.3 µM (inactive) | > 100 µM (inactive) | > 100 µM (inactive) | > 100 µM (inactive) | 93.1 µM (inactive) | 41.8 µM (inactive) | > 100 µM (inactive) | 31 µM (inactive) |  |  |  |
| C=Nc1ccc([N+](=O)[O-])cc1 | > 100 µM (inactive) | > 100 µM (inactive) | > 100 µM (inactive) | > 100 µM (inactive) | > 60.1 | > 100 µM (inactive) | > 100 µM (inactive) | > 100 µM (inactive) | 43.5 µM (inactive) | > 100 µM (inactive) | > 100 µM (inactive) | > 100 µM (inactive) | > 100 µM (inactive) | > 100 µM (inactive) | > 100 µM (inactive) | > 84.5 µM (inactive) | > 44.6 µM (inactive) | > 100 µM (inactive) | > 100 µM (inactive) |
| Cc1cc(N(CCC#N)CCC#N)ccc1/C=C(\NC(=O)/C=C/c1ccccc1)NC(=O)Nc1ccc(Cl)cc1 | > 100 µM (inactive) | 32.5 µM (inactive) | 19.2 µM (inactive) | 23.6 µM (inactive) | > 100 | > 100 µM (inactive) | 38.8 µM (inactive) | 15 µM (inactive) | 1.83 µM (inactive) | 22.2 µM (inactive) | 18.9 µM (inactive) | 80 µM (inactive) | 42.5 µM (inactive) | > 10 µM (inactive) | 14.3 µM (inactive) | 8.83 µM (inactive) | 2.13 µM (inactive) | > 100 µM (inactive) |  |
| CCC1=CCC(P(=O)(c2ccccc2)c2ccccc2)CC1C (centres undefined) | 38.5 µM (inactive) | 37.1 µM (inactive) | > 100 µM (inactive) | 22.9 µM (inactive) | 34.9 | > 100 µM (inactive) | 47.1 µM (inactive) | 35.1 µM (inactive) | 44.3 µM (inactive) | 39.7 µM (inactive) | 35.6 µM (inactive) | 39.1 µM (inactive) | 32 µM (inactive) | 61.2 µM (inactive) | 46.1 µM (inactive) | 33.3 µM (inactive) | 35.2 µM (inactive) | 37.8 µM (inactive) | 18.5 µM (inactive) |
| C/C(N)=[N+](/C)[O-] | > 100 µM (inactive) | > 100 µM (inactive) |  | > 100 µM (inactive) | 19.9 | 83.6 µM (inactive) | > 100 µM (inactive) | > 100 µM (inactive) | 15.5 µM (inactive) | > 100 µM (inactive) | 38.5 µM (inactive) | > 100 µM (inactive) | > 100 µM (inactive) | > 100 µM (inactive) | > 100 µM (inactive) | > 100 µM (inactive) | 39.5 µM (inactive) | 82.4 µM (inactive) | > 100 µM (inactive) |
| CN1C(=O)C(C)(C)NS1(=O)=O | > 100 µM (inactive) | > 100 µM (inactive) | > 100 µM (inactive) | > 100 µM (inactive) | > 100 | > 100 µM (inactive) | > 100 µM (inactive) | > 100 µM (inactive) | > 100 µM (inactive) | > 100 µM (inactive) | > 100 µM (inactive) | > 100 µM (inactive) | > 100 µM (inactive) | > 100 µM (inactive) | > 100 µM (inactive) | > 100 µM (inactive) | > 100 µM (inactive) | > 100 µM (inactive) | > 100 µM (inactive) |
| O=C(CC1(O)C(=O)Nc2ccccc21)c1cccc(O)c1 (centres undefined) | > 100 µM (inactive) | > 100 µM (inactive) | > 100 µM (inactive) | > 100 µM (inactive) | > 100 | > 100 µM (inactive) | > 100 µM (inactive) |  | > 100 µM (inactive) | > 100 µM (inactive) | > 100 µM (inactive) | > 100 µM (inactive) | > 100 µM (inactive) | > 100 µM (inactive) |  | > 100 µM (inactive) | > 100 µM (inactive) | > 100 µM (inactive) | > 100 µM (inactive) |
| COC1=CC(=O)C2[C@H]3Cc4ccccc4[C@H]3C2(C)C1=O (some centres undefined) | > 100 µM (inactive) | > 100 µM (inactive) | > 100 µM (inactive) |  | 94.6 | > 100 µM (inactive) | > 100 µM (inactive) | > 100 µM (inactive) | > 100 µM (inactive) | > 100 µM (inactive) | > 100 µM (inactive) | > 100 µM (inactive) | > 100 µM (inactive) | 78 µM (inactive) | > 100 µM (inactive) | > 100 µM (inactive) | 52.1 µM (inactive) | > 100 µM (inactive) | 16.9 µM (inactive) |
| COc1cc(C(=O)N[C@H]2CCc3cc(OC)c(OC)c(OC)c3-c3ccc(SC)c(=O)cc32)cc(OC)c1OC | 0.0403 µM (active) | 0.0813 µM (active) |  | 0.00857 µM (active) | 0.444 | 0.00641 µM (active) | 0.0166 µM (active) | 0.0025 µM (active) | 0.00603 µM (active) | 0.00589 µM (active) | 1.42 µM (inactive) | 0.00813 µM (active) | 0.00962 µM (active) | 0.0025 µM (active) | 0.0116 µM (active) | 0.0316 µM (active) | 0.00583 µM (active) | 12.3 µM (inactive) | 0.252 µM (active) |
| CC(NC(=O)/C(C#N)=C/c1ccc2[nH]ccc2c1)c1ccccc1 (centres undefined) | 16.5 µM (inactive) | 24 µM (inactive) | 29.3 µM (inactive) | 14.9 µM (inactive) | 12.5 | 17.5 µM (inactive) | 17.2 µM (inactive) | 17.3 µM (inactive) | 16.4 µM (inactive) | 19.4 µM (inactive) | 20.2 µM (inactive) | 21.3 µM (inactive) | 17.1 µM (inactive) | 38.7 µM (inactive) | 15.9 µM (inactive) | 15.3 µM (inactive) | 23.8 µM (inactive) | 19.8 µM (inactive) | 31.4 µM (inactive) |
| CCCOc1ccc(/C=C\c2cc(OC)c(OC)c(OC)c2)cc1 | 26.6 µM (inactive) | 40.7 µM (inactive) | 58.3 µM (inactive) | 40.5 µM (inactive) | 43.6 | 26.5 µM (inactive) | > 100 µM (inactive) | 28.4 µM (inactive) | 27.4 µM (inactive) |  | 30.5 µM (inactive) | > 100 µM (inactive) | 39.9 µM (inactive) | > 100 µM (inactive) | 68.9 µM (inactive) | 41.4 µM (inactive) | 23.8 µM (inactive) | 63.4 µM (inactive) | 85.5 µM (inactive) |
